Data as given in patent US4710572A, “Histamine H1 antagonists” (American Home Products Corporation, priority 1986, dated 1987).
Like-named read-outs stand apart in the source and are kept apart here.

How the values were obtained:
[1] = test system: histamine-induced changes in bronchopulmonary parameters; experiment: Reversal of histamine-induced changes in bronchopulmonary parameters in the anesthetized guinea pig; format: in vivo
[2] = test system: limbic D2 dopamine receptor; experiment: Limbic D2 dopamine receptor binding (Fields et al.); conditions: at 1 μM
[3] = Confinement motor activity, Tedeschi et al.; format: in vivo; conditions: 5 and 10 mg/kg i.p.
[4] = Modified Geller-Seifter experimentally-induced conflict test; conditions: in vivo
[5] = Conditioned avoidance (shelf-jump), Herman et al.; format: in vivo; conditions: 40 mg/kg
histamine H1 [6] = biological target: T1, histamine H1 (Cavia porcellus, UniProt P31389); experiment: cell-based
T1 sequence (P31389 whole entry): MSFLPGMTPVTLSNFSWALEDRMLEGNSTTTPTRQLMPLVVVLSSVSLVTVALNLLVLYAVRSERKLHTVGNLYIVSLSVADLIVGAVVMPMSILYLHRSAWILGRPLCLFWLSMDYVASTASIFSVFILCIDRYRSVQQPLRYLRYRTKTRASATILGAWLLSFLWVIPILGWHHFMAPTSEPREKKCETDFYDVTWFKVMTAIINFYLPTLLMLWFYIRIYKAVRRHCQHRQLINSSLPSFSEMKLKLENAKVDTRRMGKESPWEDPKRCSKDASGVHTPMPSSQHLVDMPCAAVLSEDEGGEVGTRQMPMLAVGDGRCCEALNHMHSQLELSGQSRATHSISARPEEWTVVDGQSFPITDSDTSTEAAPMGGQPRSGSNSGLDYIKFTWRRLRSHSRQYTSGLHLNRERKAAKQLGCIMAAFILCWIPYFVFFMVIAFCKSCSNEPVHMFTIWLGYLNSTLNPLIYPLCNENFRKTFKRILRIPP
Method: Subsequently, additional characterization of the compound herein exemplified was carried out in which complete histamine dose response curves were constructed first in the absence of test drug and then repeated in the presence of test drug at a specified concentration. A single experiment of this type allowed calculation of a pKB value from the rightward shift induced by the drug in the histaminic dose response curve, while three such experiments (at three different drug concentrations) allowed calculation of a pA2 value.

[7] = test system: histamine-induced wheal formation in guinea pig skin; experiment: Histamine-induced wheal formation in guinea pig skin; format: in vivo
histamine H1 [8] = biological target: T1, histamine H1; experiment: Histamine-induced contraction of isolated guinea pig ileum, single drug concentration; format: cell-based; design: A section of terminal ileum was removed and suspended in aerated 37° C; Tyrodes solution; from tissue; host or cells: terminal ileum of male Hartley guinea pigs; conditions: histamine 1×10^-7 M; test drug 1×10^-6 M
Method: Fresh segments of terminal ileum immediately proximal to Peyer's patch, obtained from male Buckshire guinea pigs, were suspended in 37° C. Tyrode's solution in a tissue bath and aerated. The tissue segments were placed under one gram tension and allowed to equilibrate for one hour. Histamine was added to each tissue bath to a final concentration of 1×10^-7 M. The response was noted as grams tension. Test drug was added, in the presence of histamine, to each bath to a final concentration of 1×10^-6 M. The change in grams tension was noted and the percent reduction in grams tension calculated.

[9] = test system: histamine-induced paw edema formation; experiment: Histamine-induced paw edema formation; conditions: in vivo
histamine H1 [10] = biological target: T1, histamine H1; experiment: Drugs vs. histamine at 1 × 10^-6 M in guinea pig terminal ileum, comparison with -383 analogues; format: cell-based; design: A section of terminal ileum was removed and suspended in aerated 37° C; Tyrodes solution; from tissue; host or cells: terminal ileum of male Hartley guinea pigs
Source text: Tyrodes solution. […] Tissues were washed several times before repeating the procedure for the next concentration. A different set of 4 tissues was used for each drug.

[11] = test system: histamine-induced deaths in guinea pigs; experiment: Inhibition of histamine-induced deaths in guinea pigs; format: in vivo, guinea pig
Method: The compound exemplified herein, after a one hour pretreatment period, inhibited histamine-induced deaths in guinea pigs over the range of 1-5 mg/kg, with 100 percent effectiveness at the latter dose. At 18 hours post drug treatment the test compound retained 40 percent effectiveness at 10 mg/kg.

[12] = guinea pig ileum, histamine 1 × 10^-6 M, calculated from the table data, read-out: IC50 (inhibitory concentration50)

| IC50 (histamine H1 [10]; [12]) [nM] | Structure (SMILES) | reversal of histamine-induced changes in bronchopulmonary parameters [1] | inhibition of limbic D2 dopamine receptor binding [2] [%] | sedative effect in confinement motor activity [3] | effect in modified Geller-Seifter conflict test [4] | conditioned avoidance (shelf-jump) activity [5] | Kb (histamine H1 [6]) [nM] | type of antagonism (shift of histamine dose response curve) (histamine H1 [6]; isolated guinea pig ileum) | potency relative to terfenadine (histamine H1 [6]; vs terfenadine) | effectiveness against wheal formation ([7]; 1.7 mg/kg, 18 hour pretreatment) | suppression of wheal formation ([7]; highest dose (2.1 mg/kg), one hour pretreatment) | antagonist action against the histamine-induced contractile response in the isolated guinea pig ileum (histamine H1 [8]) | inhibition of histamine-induced paw edema formation [9] | IC50 (histamine H1 [10]) [nM] | potency relative to the -383 dichloro compound (histamine H1 [10]; ratio of IC50's) | potency relative to the -383 monochloro compound (histamine H1 [10]; ratio of IC50's) [times] | effectiveness in inhibition of histamine-induced deaths ([11]; 5 mg/kg, one hour pretreatment) [%] | effectiveness in inhibition of histamine-induced deaths ([11]; 10 mg/kg, 18 hours post drug treatment) [%] |
| --- | --- | --- | --- | --- | --- | --- | --- | --- | --- | --- | --- | --- | --- | --- | --- | --- | --- | --- |
|  | Cn1c(=O)c2c(ncn2CCCN2CCN(C(c3ccc(F)cc3)c3ccc(F)cc3)CC2)n(C)c1=O [Difluoro compound, 7-[3-[4-bis(4-fluorophenyl)methyl]-1-piperazinyl]propyl-3,7-dihydro-1,3-dimethyl-1H-purine-2,6-dione] | reversal of histamine-induced changes in bronchopulmonary parameters | 43 | no sedative effect | mild stimulation | inactive | 6.31 | parallel rightward shifts with no decrease in the maximum response | about five times as potent as terfenadine | retained maximal effectiveness | Maximum suppression of wheal formation | potent, competitive antagonist action | inhibition of histamine-induced paw edema formation | 38 | about 21 times | 10 | 100 | 40 |
| 790 | Cn1c(=O)c2c(ncn2CCCCN2CCN(C(c3ccc(Cl)cc3)c3ccc(Cl)cc3)CC2)n(C)c1=O [-383 Dichloro compound, 7-[4-[4-(4',4"-dichlorodiphenylmethyl)piperazinyl-(1)]-n-butyl]theophylline, reference compound] |  |  |  |  |  |  |  |  |  |  |  |  |  |  |  |  |  |
| 370 | Cn1c(=O)c2c(ncn2CCCN2CCN(C(c3ccccc3)c3ccc(Cl)cc3)CC2)n(C)c1=O (stereo not shown) [-383 Monochloro compound, 7-[3-[4-p-chlorobenzhydrylpiperazinyl-(1)]-n-propyl]-theophylline, reference compound] |  |  |  |  |  |  |  |  |  |  |  |  |  |  |  |  |  |
